Data on 16 compounds can be found in patent publication US6518290B1, “Substituted oxazoles and thiazoles derivatives as HPPAr alpha activators” (priority 1999, dated 2003).

Structures are written as SMILES.

Holding throughout (assay type): cell-based
One experiment concerns the target T1, human PPAR gamma (Homo sapiens, UniProt P37231).
T1 construct: expressed in transfected cells; host or cells: CV-1 cells
T1 sequence (P37231 238-503 limits assumed): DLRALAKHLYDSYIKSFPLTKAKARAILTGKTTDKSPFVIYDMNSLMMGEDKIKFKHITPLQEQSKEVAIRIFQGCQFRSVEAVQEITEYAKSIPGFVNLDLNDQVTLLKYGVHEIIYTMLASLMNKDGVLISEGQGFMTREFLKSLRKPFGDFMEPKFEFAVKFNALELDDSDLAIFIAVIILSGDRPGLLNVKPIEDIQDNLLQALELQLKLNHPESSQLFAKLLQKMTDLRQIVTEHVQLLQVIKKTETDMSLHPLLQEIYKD
As to the kind of experiment: PPAR transient transfection (transactivation) assay in CV-1 cells, hPPAR gamma. Conditions: PPAR LBD-GAL4 chimera, SPAP reporter, 24 h with compound, read-out: human γEC50. An excerpt: (§1) Compounds were screened for functional potency in transient transfection assays in CV-1 cells for their ability to activate the PPAR subtypes (transactivation assay). A previously established chimeric receptor system was utilized to allow comparison of the relative transcriptional activity of the receptor subtypes on the same target gene and to prevent endogenous receptor activation from complicating the interpretation of results. See, for example, Lehmann, J. M.; Moore, L. B.; Smith-Oliver, T. A.; Wilkison, W. O.; Willson, T. M.; Kliewer, S. A., An antidiabetic thiazolidinedione is a high affinity ligand for peroxisome proliferator-activated receptor γ (PPARγ), J. Biol. Chem., 1995, 270, 12953-6. The ligand binding domains for murine and human PPAR alpha, PPAR gamma, and PPAR delta were each fused to the yeast transcription factor GAL4 DNA binding domain. CV-1 cells were transiently transfected with expression vectors for the respective PPAR chimera along with a reporter construct containing five copies of the GAL4 DNA binding site driving expression of secreted placental alkaline phosphatase (SPAP) and β-galactosidase. After 16 h, the medium was exchanged to DME medium supplemented with 10% delipidated fetal calf serum and the test compound at the appropriate concentration. After an additional 24 h, cell extracts were prepared and assayed for alkaline phosphatase and β-galactosidase activity. Alkaline phosphatase activity was corrected for transfection efficiency using the β-galactosidase activity as an internal standard (see, for example, Kliewer, S. A., et. al. Cell 83, 813-819 (1995)). Rosiglitazone (BRL 49653) was used as a positive control in the hPPAR gamma assay. The positive control in the hPPAR alpha assays was 2-(2-methyl-3-[3-{3-(4-cyclohexylamino)-[6-(4-fluorophenylpiperazin-1-yl)][1,3,5]triazin-2-ylamino}propyl]phenylthio)-2-methylpropionic acid. The positive control for PPAR delta assays was 2-{2-methyl-4-[({4-methyl-2-{trifluoromethyl)phenyl]-1,3-thiazol-5-yl}methyl)sulfanyl]phenoxy}acetic acid.

The next experiment deals with T2, human PPAR delta (Homo sapiens, UniProt Q03181).
T2 construct: expressed in transfected cells; host or cells: CV-1 cells
T2 sequence (Q03181 211-439 limits assumed): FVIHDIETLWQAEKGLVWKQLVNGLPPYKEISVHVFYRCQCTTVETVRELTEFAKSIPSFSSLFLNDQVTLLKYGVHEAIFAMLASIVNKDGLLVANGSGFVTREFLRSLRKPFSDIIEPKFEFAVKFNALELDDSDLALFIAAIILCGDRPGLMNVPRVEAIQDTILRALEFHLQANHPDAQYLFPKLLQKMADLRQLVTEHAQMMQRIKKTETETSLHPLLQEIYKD
Description: PPAR transient transfection (transactivation) assay in CV-1 cells, PPAR delta. To be noted: PPAR LBD-GAL4 chimera, SPAP reporter, 24 h with compound, read-out: human δEC50.
Text: as §1

For a further experiment, the target named is T3, human PPAR alpha (Homo sapiens, UniProt Q07869).
T3 construct: expressed in transfected cells; host or cells: CV-1 cells
T3 sequence (Q07869 239-466 limits assumed): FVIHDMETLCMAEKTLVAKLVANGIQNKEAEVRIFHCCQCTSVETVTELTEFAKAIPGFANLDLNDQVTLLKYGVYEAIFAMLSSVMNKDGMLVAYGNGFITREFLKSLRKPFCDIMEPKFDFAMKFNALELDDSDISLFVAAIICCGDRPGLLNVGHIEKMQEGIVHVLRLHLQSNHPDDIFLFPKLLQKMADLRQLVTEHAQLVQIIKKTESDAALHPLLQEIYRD
As to the kind of experiment: PPAR transient transfection (transactivation) assay in CV-1 cells, hPPAR alpha. Conditions: PPAR LBD-GAL4 chimera, SPAP reporter, 24 h with compound, read-out: human αEC50.
Text: as §1, with “Alkaline phosphatase activity was corrected for transfection efficiency using the β-galactosidase activity as an internal standard (see, for example, Kliewer, S. A., et. al. Cell 83, 813-819 (1995)).” left out

Consider `CCOC(=O)C(C)(C)Oc1ccc(CNC(=O)c2sc(-c3ccc(C(F)(F)F)cc3)nc2C)cc1` [Example 1, 2-Methyl-2-[4-{[(4-methyl-2-[4-trifluoromethylphenyl]thiazol-5-ylcarbonyl)amino]methyl}phenoxy]propionic Acid Ethyl Ester], for which the values for the EC50 at human PPAR gamma, on human PPAR delta and at human PPAR alpha were at least 10 µM, at least 10 µM and 17 nM, respectively.

For `Cc1nc(-c2ccc(C(F)(F)F)cc2)sc1C(=O)NCc1ccc(OC(C)(C)C(=O)O)cc1` [Example 2, 2-Methyl-2-[4-{[(4-methyl-2-[4-trifluoromethylphenyl]-thiazol-5-ylcarbonyl)amino]methyl}phenoxy]propionic Acid], the EC50 is at least 10 µM on human PPAR gamma and 2.95 µM at human PPAR delta.

Consider `Cc1nc(-c2ccc(C(F)(F)F)cc2)sc1C(=O)N(C)Cc1ccc(OC(C)(C)C(=O)O)cc1` [Example 6, N-Methyl-2-methyl-2-[4-{[(4-methyl-2-[4-trifluoromethylphenyl]-thiazol-5-ylcarbonyl)amino]methyl}phenoxy]propionic Acid], for which the EC50 at human PPAR gamma was at least 10 µM; on human PPAR delta, at least 10 µM; at human PPAR alpha it was 230 nM.

Regarding `Cc1nc(-c2ccc(C(F)(F)F)cc2)sc1C(=O)NCCc1ccc(OC(C)(C)C(=O)O)cc1` [Example 10, 2-Methyl-2-[4-{[(4-methyl-2-[4-trifluoromethylphenyl]-thiazol-5-ylcarbonyl)amino]ethyl}phenoxy]propionic Acid], the results for the EC50 on human PPAR gamma, at human PPAR delta and on human PPAR alpha were at least 10 µM, at least 10 µM and 108 nM, respectively.

Take `Cc1nc(-c2ccc(C(C)(C)C)cc2)sc1C(=O)NCc1ccc(OC(C)(C)C(=O)O)cc1` [Example 13, 2-Methyl-2-[4-{[(4-methyl-2-[4-tertbutylphenyl]-thiazol-5-ylcarbonyl)amino]methyl}phenoxy]propionic Acid]: the EC50 at human PPAR gamma was 0.85 µM; at human PPAR delta it was at least 10 µM; on human PPAR alpha, 5 nM.

On to `Cc1nc(-c2ccc(C(C)C)cc2)sc1C(=O)NCc1ccc(OC(C)(C)C(=O)O)cc1` [Example 15, 2-Methyl-2-[4-{[(4-methyl-2-[4-isopropylphenyl]-thiazol-5-ylcarbonyl)amino]methyl}phenoxy]propionic Acid], for which the EC50 at human PPAR gamma came out at 2.64 µM; on human PPAR delta, 4.37 µM; on human PPAR alpha it was 1 nM.

For `Cc1nc(-c2ccc([N+](=O)[O-])cc2)sc1C(=O)NCc1ccc(OC(C)(C)C(=O)O)cc1` [Example 17, 2-Methyl-2-[4-{[(4-methyl-2-[4-nitrophenyl]-thiazol-5-ylcarbonyl)amino]methyl}phenoxy]propionic Acid], the figures for the EC50 at human PPAR gamma, at human PPAR delta and at human PPAR alpha were at least 10 µM, at least 10 µM and 27 nM, respectively.

Regarding `Cc1nc(-c2ccc(Cl)c(Cl)c2)sc1C(=O)NCc1ccc(OC(C)(C)C(=O)O)cc1` [Example 21, 2-Methyl-2-[4-{[(4-methyl-2-[3,4-dichlorophenyl]-thiazol-5-ylcarbonyl)amino]methyl}phenoxy]propionic Acid], the EC50 at human PPAR gamma is at least 10 µM; at human PPAR delta, at least 10 µM; on human PPAR alpha it was 28 nM.

In the case of `Cc1nc(-c2ccc(C(F)(F)F)c(F)c2)sc1C(=O)NCc1ccc(OC(C)(C)C(=O)O)cc1` [Example 23, 2-Methyl-2-[4-{[(4-methyl-2-[3-fluoro-4-trifluoromethylphenyl]-thiazol-5-ylcarbonyl)amino]methyl}phenoxy]propionic Acid], the EC50 at human PPAR gamma is at least 10 µM; on human PPAR delta, 9.19 µM; at human PPAR alpha, 7 nM.

With `Cc1nc(-c2ccc(Br)cc2)sc1C(=O)NCc1ccc(OC(C)(C)C(=O)O)cc1` [Example 25, 2-Methyl-2-[4-{[(4-methyl-2-[4-bromophenyl]-thiazol-5-ylcarbonyl)amino]methyl}phenoxy]propionic Acid], the EC50 is at least 10 µM at human PPAR gamma, 2.7 µM at human PPAR delta and 10 nM on human PPAR alpha.

Consider `CCc1ccc(-c2nc(C)c(C(=O)NCc3ccc(OC(C)(C)C(=O)O)cc3)s2)cc1` [Example 27, 2-Methyl-2-[4-{[(4-methyl-2-[4-ethylphenyl]-thiazol-5-ylcarbonyl)amino]methyl}phenoxy]propionic Acid], for which the results for the EC50 at human PPAR gamma, at human PPAR delta and at human PPAR alpha were 8.82 µM, 4.08 µM and 2 nM, respectively.

For `Cc1nc(-c2ccccc2)sc1C(=O)NCc1ccc(OC(C)(C)C(=O)O)cc1` [Example 29, 2-Methyl-2-[4-{[(4-methyl-2-phenylthiazol-5-ylcarbonyl)amino]methyl}phenoxy]propionic Acid], the EC50 was at least 10 µM on human PPAR gamma, at least 10 µM on human PPAR delta and 122 nM at human PPAR alpha.

Turning to `Cc1nc(-c2ccc(Cl)cc2)sc1C(=O)NCc1ccc(OC(C)(C)C(=O)O)cc1` [Example 33, 2-Methyl-2-[4-{[(4-methyl-2-[4-chlorophenyl]-thiazol-5-ylcarbonyl)amino]methyl}phenoxy]propionic Acid], the EC50 is at least 10 µM on human PPAR gamma, 5.35 µM at human PPAR delta and 14 nM at human PPAR alpha.

`Cc1nc(-c2ccc(OC(F)(F)F)cc2)sc1C(=O)NCc1ccc(OC(C)(C)C(=O)O)cc1` [Example 35, 2-Methyl-2-[4-{[(4-methyl-2-[4-trifluoromethoxyphenyl]-thiazol-5-ylcarbonyl)amino]methyl}phenoxy]propionic Acid]: the EC50 on human PPAR gamma was at least 10 µM; at human PPAR delta, 4.59 µM; at human PPAR alpha it was 4 nM.

For `COc1ccc(-c2nc(C)c(C(=O)NCc3ccc(OC(C)(C)C(=O)O)cc3)s2)cc1` [Example 37, 2-Methyl-2-[4-{[(4-methyl-2-[4-methoxyphenyl]-thiazol-5-ylcarbonyl)amino]methyl}phenoxy]propionic Acid], the EC50 at human PPAR gamma was at least 10 µM; on human PPAR delta, at least 10 µM; on human PPAR alpha it was 20 nM.

In the case of `C#Cc1ccc(-c2nc(C)c(C(=O)NCc3ccc(OC(C)(C)C(=O)O)cc3)s2)cc1` [Example 39, 2-Methyl-2-[4-{[(4-methyl-2-[4-acetylenylphenyl]-thiazol-5-ylcarbonyl)amino]methyl}phenoxy]propionic Acid], the EC50 is at least 10 µM at human PPAR gamma, 2.48 µM at human PPAR delta and 36 nM on human PPAR alpha.
